These results are taken from patent US12662475B2, “Difluorocyclohexyl derivatives as IL-17 modulators” (UCB BIOPHARMA SRL, priority 2020, dated 2026).

Structures are written as SMILES.

In this assay the test system is IL-17 induced IL-6 release from human dermal fibroblasts. Kind of assay: Inhibition of IL-17A induced IL-6 release from dermal fibroblast cell line (HDF cell line assay). The class given is cell-based. The conditions noted are these: Incubation Time 5 h. The procedure:
Inhibition of IL-17A Induced IL-6 Release from Dermal Fibroblast Cell Line
The purpose of this assay is to test the neutralising ability to IL-17 proteins, in a human primary cell system.
The resultant IL-6 response was then measured using a homogenous time-resolved FRET kit from Cisbio. The kit utilises two monoclonal antibodies, one labelled with Eu-Cryptate (Donor) and the second with d2 or XL665 (Acceptor).
The ability of a compound to inhibit IL-17 induced IL-6 release from human dermal fibroblasts is measured in this assay.
The TrypLE was neutralised using complete medium (45 mL) and the cells were centrifuged at 300×g for 3 minutes. […] The cells were left for a minimum of three hours, at 37° C./5% CO2, to adhere to the plate.
10 μL from the aqueous dilution plate was transferred to the reagent plate containing 30 μL of the diluted cytokines, to give a 2.5% DMSO solution. The compounds were incubated with the cytokine mixtures for 1 h or 5 h at 37° C. After the incubation, 10 μL was transferred to the assay plate, to give a […] solution, then incubated for 18-20 h at 37° C./5% CO2.
Consider `Cc1nonc1C(=O)N[C@H](c1nc2c(F)c([C@H](CC(F)(F)F)C(=O)NCC(F)F)ccc2[nH]1)C1CCC(F)(F)CC1` (single isomer, unassigned) [Example 37], for which the IC50 (as a rule, the concentration that gives 50% inhibition) is 15.8 nM.

In turn, `Cc1nonc1C(=O)N[C@H](c1nc2c(F)c([C@@H](CC(F)(F)F)C(=O)N[C@@H](C(=O)N(C)C)C(C)C)ccc2[nH]1)C1CCC(F)(F)CC1` (single isomer, unassigned) [Example 12] gave an IC50 of 126 nM. In the case of `CC(C)n1ncnc1C(=O)N[C@H](c1nc2c(F)c([C@H](CC(F)F)C(=O)NCC(C)(F)F)ccc2[nH]1)C1CCC(F)(F)CC1` (single isomer, unassigned) [Example 55], the IC50 was 3.98 nM. Next, `Cc1nonc1C(=O)N[C@H](c1nc2c(F)c(C(CC(F)(F)F)C(=O)NCCC(F)(F)F)ccc2[nH]1)C1CCC(F)(F)CC1` (stereo partly drawn) [Example 13, N—[(S)-(4,4-Difluorocyclohexyl){4-fluoro-5-[3,3,3-trifluoro-1-(3,3,3-trifluoropropyl-carbamoyl)propyl]-1H-benzimidazol-2-yl}methyl]-4-methyl-1,2,5-oxadiazole-3-carboxamide]: 5.01 nM; `CC(C)n1ncnc1C(=O)N[C@H](c1nc2c(F)c([C@H](CC(C)(F)F)C(=O)NCC(C)(F)F)ccc2[nH]1)C1CCC(F)(F)CC1` (single isomer, unassigned) [Example 87]: 7.94 nM; `CC(C)(F)CNC(=O)[C@H](CC(F)(F)F)c1ccc2[nH]c([C@@H](NC(=O)c3nonc3C3CC3)C3CCC(F)(F)CC3)nc2c1F` (single isomer, unassigned) [Example 63]: 158 nM. For `Cc1nonc1C(=O)N[C@H](c1nc2c(F)c([C@@H](CC(F)F)C(=O)N[C@@H](C)C(F)(F)F)ccc2[nH]1)C1CCC(F)(F)CC1` (single isomer, unassigned) [Example 45] the value was 501 nM; for `Cc1nonc1C(=O)N[C@H](c1nc2c(F)c([C@@H](CC(F)F)C(=O)N[C@H](C)C(F)(F)F)ccc2[nH]1)C1CCC(F)(F)CC1` (single isomer, unassigned) [Example 48], 3160 nM; for `CC(C)n1ncnc1C(=O)N[C@H](c1nc2c(F)c([C@H](CC(F)F)C(=O)NCC(F)(F)F)ccc2[nH]1)C1CCC(F)(F)CC1` [Example 80, N—[(S)-(4,4-Difluorocyclohexyl){5-[(1S)-3,3-difluoro-1-(2,2,2-trifluoroethylcarbamoyl)-propyl]-4-fluoro-1H-benzimidazol-2-yl}methyl]-2-isopropyl-1,2,4-triazole-3-carboxamide], 6.31 nM. For the molecule `CC(F)(F)CNC(=O)[C@@H](CC(F)(F)F)c1ccc2[nH]c([C@@H](NC(=O)C3(F)CC3)C3CCC(F)(F)CC3)nc2c1F` (single isomer, unassigned) [Example 84], the IC50 was 25.1 nM.

`CC(F)(F)CNC(=O)[C@H](CC(F)(F)F)c1ccc2[nH]c([C@@H](NC(=O)C3(F)CC3)C3CCC(F)(F)CC3)nc2c1F` (single isomer, unassigned) [Example 83]: the IC50 is 2000 nM. The molecule `Cc1nonc1C(=O)N[C@H](c1nc2c(F)c(C(CC(F)(F)F)C(=O)NCC3CC3(F)F)ccc2[nH]1)C1CCC(F)(F)CC1` (stereo partly drawn) [Example 14, N—[(S)-(4,4-Difluorocyclohexyl)(5-{1-[(2,2-difluorocyclopropyl)methylcarbamoyl]-3,3,3-trifluoropropyl}-4-fluoro-1H-benzimidazol-2-yl)methyl]-4-methyl-1,2,5-oxadiazole-3-carboxamide] had an IC50 of 7.94 nM.

`O=C(NCC(F)(F)F)[C@@H](CC(F)F)c1ccc2[nH]c([C@@H](NC(=O)C3(F)CC3)C3CCC(F)(F)CC3)nc2c1F` [Example 81, N—[(S)-(4,4-Difluorocyclohexyl){5-[(1S)-3,3-difluoro-1-(2,2,2-trifluoroethylcarbamoyl)-propyl]-4-fluoro-1H-benzimidazol-2-yl}methyl]-1-fluorocyclopropanecarboxamide] had an IC50 of 31.6 nM.
